In the supplement of paper PMC12463676, “Small-molecule dissolution of stress granules by redox modulation benefits ALS models” (Nature Chemical Biology, 2025):

Columns and labels:
potassium arsenate = compound: O=[As]([O-])(O)O.[K+] [potassium arsenate]; experiment: thermal stability z-score vs DMSO; higher = more thermally stabilized by treatment; conditions: HeLa; arsenate concentration 1 mM
Protocol: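 Cellular thermal proteome profiling in HeLa cells treated with 1 mM arsenate for 1 h (DMSO pretreatment), heated to ten temperatures (37-66.3 °C). Soluble protein was quantified by TMT mass spectrometry relative to DMSO controls; the thermal stability score was transformed to a z-score; mean of n = 3 experiments.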

lipoamide = compound: NC(=O)CCCCC1CCSS1 [lipoamide]; experiment: as above; conditions: HeLa, lipoamide concentration 100 µM
Protocol: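 Cellular thermal proteome profiling in HeLa cells. Cells were treated with 100 µM lipoamide for 1 h, with or without 1 mM arsenate for a further 1 h, then heated to ten temperatures (37-66.3 °C), and soluble protein was quantified by TMT mass spectrometry relative to 0.1% DMSO controls. The thermal stability score (sum of log2 fold changes minus the abundance score) was transformed to a z-score; mean of n = 3 experiments.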

[1] = arsenate co-treatment: 1 mM arsenate 1 h
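Also: each temperature applied for 3 min, abundance score taken as mean log2 fold change at the two lowest temperatures, z-score obtained by mean subtraction and division by SD.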

UniProt Q8TEA8, sequence (Q8TEA8 whole entry): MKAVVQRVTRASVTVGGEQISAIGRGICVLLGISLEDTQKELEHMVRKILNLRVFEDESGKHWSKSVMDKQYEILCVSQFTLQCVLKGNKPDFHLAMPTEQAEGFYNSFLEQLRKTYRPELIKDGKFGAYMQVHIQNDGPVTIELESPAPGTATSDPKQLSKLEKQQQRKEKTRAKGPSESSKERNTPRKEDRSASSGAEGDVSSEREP
UniProt P04899, sequence (P04899 whole entry): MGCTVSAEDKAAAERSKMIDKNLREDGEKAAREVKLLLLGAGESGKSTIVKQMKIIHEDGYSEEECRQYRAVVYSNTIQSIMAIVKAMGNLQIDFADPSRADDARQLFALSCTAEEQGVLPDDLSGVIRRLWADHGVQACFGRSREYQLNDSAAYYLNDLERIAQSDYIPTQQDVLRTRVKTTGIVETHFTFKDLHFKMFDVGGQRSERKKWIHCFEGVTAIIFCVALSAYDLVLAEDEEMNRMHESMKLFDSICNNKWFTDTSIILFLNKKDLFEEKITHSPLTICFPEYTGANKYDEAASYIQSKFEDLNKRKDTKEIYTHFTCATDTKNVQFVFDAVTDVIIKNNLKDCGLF
UniProt Q9Y4F5, sequence (Q9Y4F5 whole entry): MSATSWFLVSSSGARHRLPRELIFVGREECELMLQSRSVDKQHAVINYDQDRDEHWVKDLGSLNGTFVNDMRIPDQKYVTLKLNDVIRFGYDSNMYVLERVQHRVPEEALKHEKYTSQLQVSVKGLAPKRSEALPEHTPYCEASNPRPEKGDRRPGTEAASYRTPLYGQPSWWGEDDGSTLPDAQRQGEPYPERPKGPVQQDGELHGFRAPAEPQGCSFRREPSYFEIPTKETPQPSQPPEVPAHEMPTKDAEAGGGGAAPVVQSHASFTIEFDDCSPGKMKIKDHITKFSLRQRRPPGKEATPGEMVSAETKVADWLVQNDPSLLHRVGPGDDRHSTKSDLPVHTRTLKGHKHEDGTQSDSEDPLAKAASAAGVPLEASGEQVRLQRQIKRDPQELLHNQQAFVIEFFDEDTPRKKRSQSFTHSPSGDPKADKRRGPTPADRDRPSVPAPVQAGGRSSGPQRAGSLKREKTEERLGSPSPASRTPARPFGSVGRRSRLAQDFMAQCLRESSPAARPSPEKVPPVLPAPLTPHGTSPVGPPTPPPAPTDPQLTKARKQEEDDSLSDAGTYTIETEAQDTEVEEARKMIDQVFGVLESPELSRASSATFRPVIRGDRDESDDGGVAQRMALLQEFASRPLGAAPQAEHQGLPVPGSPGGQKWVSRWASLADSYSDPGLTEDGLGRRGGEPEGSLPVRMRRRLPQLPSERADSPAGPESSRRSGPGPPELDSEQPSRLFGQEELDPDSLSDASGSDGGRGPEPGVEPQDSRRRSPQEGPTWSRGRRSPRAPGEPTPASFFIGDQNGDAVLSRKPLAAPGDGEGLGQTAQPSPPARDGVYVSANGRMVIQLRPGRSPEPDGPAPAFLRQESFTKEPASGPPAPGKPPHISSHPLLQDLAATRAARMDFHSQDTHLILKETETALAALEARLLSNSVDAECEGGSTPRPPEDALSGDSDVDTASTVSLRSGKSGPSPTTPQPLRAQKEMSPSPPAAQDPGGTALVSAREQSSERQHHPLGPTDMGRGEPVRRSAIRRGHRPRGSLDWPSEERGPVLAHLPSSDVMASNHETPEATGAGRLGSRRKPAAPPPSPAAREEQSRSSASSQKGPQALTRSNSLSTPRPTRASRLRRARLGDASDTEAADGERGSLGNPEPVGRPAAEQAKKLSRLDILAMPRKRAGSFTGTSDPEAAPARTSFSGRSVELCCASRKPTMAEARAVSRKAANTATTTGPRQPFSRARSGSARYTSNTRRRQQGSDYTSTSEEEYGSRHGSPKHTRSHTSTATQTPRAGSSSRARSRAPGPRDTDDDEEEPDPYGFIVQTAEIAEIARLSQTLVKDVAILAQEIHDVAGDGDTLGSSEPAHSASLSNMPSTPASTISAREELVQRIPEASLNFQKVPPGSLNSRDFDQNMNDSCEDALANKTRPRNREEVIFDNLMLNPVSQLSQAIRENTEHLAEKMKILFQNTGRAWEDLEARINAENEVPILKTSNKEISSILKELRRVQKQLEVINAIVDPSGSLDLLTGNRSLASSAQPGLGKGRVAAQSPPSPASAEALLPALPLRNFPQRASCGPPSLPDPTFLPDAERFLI
UniProt Q9NQ34, sequence (Q9NQ34 whole entry): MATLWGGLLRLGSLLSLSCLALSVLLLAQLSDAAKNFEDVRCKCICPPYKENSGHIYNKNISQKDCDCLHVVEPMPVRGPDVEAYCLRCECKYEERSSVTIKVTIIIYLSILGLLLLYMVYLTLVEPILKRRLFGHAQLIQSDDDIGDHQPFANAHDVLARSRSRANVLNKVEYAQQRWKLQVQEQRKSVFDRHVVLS
UniProt P07942, sequence (P07942 whole entry): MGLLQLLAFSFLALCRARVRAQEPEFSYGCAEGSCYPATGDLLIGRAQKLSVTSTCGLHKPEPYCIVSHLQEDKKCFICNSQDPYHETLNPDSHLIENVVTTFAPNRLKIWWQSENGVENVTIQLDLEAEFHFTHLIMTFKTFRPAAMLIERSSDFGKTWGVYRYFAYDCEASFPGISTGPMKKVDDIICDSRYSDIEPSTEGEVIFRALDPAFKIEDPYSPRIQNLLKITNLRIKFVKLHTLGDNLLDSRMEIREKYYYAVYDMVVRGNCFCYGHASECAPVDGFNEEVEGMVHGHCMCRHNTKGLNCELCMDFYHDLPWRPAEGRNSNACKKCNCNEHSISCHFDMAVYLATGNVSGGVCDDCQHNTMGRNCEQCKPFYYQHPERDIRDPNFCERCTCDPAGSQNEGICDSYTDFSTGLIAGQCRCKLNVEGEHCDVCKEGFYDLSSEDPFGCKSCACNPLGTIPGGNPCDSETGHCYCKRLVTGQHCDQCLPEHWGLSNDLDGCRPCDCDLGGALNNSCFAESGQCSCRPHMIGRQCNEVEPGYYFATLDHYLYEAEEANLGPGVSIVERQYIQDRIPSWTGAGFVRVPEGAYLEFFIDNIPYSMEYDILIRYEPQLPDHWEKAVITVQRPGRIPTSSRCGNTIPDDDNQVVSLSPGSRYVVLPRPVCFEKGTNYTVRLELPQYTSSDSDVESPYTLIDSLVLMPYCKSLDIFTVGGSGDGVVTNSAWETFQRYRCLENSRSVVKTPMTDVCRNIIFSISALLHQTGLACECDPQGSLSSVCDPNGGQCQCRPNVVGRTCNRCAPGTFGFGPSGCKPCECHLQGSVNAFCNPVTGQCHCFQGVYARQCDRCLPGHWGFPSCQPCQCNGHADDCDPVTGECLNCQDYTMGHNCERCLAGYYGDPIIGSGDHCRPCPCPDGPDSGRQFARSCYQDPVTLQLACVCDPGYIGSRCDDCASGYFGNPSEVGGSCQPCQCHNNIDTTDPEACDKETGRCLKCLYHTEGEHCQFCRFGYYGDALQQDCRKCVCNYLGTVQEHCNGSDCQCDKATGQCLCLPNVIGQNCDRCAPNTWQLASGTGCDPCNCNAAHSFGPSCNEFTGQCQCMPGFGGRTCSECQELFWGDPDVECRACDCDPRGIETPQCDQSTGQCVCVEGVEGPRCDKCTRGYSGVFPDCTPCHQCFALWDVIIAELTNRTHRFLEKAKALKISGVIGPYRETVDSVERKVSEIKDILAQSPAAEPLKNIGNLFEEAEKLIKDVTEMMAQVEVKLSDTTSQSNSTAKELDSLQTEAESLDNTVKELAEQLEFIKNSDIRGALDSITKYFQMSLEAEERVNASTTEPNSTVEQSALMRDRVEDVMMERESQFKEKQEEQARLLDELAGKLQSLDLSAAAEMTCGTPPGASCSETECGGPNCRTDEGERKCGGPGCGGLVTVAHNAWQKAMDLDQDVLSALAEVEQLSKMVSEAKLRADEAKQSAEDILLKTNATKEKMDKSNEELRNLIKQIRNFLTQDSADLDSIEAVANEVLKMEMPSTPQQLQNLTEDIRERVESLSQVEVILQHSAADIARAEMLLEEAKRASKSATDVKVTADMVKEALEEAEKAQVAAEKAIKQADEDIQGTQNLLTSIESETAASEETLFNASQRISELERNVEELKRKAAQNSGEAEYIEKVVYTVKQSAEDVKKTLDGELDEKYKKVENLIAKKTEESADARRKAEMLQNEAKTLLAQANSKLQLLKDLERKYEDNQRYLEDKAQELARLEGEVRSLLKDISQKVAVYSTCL
UniProt Q9UKA9, sequence (Q9UKA9 whole entry): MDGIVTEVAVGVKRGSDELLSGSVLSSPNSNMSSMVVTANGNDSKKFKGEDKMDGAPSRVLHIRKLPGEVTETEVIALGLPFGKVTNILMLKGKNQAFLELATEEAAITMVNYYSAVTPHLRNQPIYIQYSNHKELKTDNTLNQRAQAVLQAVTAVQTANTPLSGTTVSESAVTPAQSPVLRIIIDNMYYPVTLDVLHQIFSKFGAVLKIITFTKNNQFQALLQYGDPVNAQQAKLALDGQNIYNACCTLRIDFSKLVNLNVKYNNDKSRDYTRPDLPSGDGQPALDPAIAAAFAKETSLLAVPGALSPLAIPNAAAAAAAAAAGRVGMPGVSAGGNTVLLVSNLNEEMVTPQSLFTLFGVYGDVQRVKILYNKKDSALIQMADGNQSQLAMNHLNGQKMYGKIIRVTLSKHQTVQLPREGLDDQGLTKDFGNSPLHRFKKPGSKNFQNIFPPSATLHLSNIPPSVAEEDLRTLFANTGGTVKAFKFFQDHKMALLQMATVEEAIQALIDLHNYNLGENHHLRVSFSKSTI
UniProt Q9HBH1, sequence (Q9HBH1 whole entry): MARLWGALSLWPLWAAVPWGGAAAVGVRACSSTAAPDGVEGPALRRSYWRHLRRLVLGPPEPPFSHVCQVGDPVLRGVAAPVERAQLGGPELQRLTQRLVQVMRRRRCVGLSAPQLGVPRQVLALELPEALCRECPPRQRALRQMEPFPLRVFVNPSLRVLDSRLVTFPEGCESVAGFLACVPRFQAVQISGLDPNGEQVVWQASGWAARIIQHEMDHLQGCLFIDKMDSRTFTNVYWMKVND
UniProt Q15651, sequence (Q15651 whole entry): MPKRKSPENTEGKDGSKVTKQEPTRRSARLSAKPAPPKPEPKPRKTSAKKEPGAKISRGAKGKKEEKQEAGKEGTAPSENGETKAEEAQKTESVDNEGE

Row | Target | thermal stability z-score (potassium arsenate) | thermal stability z-score (lipoamide; [1]) | thermal stability z-score (lipoamide; arsenate co-treatment: none)
1 | SSRP1 (UniProt Q08945) | 1.4 | 1.24 | 2.15
2 | RBM4 (UniProt Q9BWF3) | 0.216 | 0.135 | 0.129
3 | RSRC1 (UniProt Q96IZ7) | 1.14 | 1.06 | 0.987
4 | DLG1 (UniProt Q12959) | -0.34 | 0.111 | -0.207
5 | HUS1 (UniProt O60921) | -0.902 | -0.436 | -0.56
6 | DTD1 (UniProt Q8TEA8) | 0.163 | 0.65 | 0.308
7 | CCDC186 (UniProt Q7Z3E2) | 0.0522 | -0.0502 | -0.00496
8 | MED8 (UniProt Q96G25) | 0.0962 | 0.954 | 0.843
9 | HMGN3 (UniProt Q15651) | 0.493 | 1.36 | 0.402
10 | CLSPN (UniProt Q9HAW4) | 1.12 | -0.352 | 0.214
11 | HINT2 (UniProt Q9BX68) | -1.98 | -0.459 | -0.337
12 | COL5A2 (UniProt P05997) | 1.12 | -3.8 | -3.3
13 | LDB1 (UniProt Q86U70) | -0.783 | 0.244 | 1.15
14 | PGLS (UniProt O95336) | -1.3 | 0.924 | -0.683
15 | PDF (UniProt Q9HBH1) | -0.495 | -0.494 | -0.231
16 | TSNAX (UniProt Q99598) | -0.215 | -0.075 | -0.0638
17 | CYFIP1 (UniProt Q7L576) | -1.67 | -0.422 | -0.325
18 | DEK (UniProt P35659) | -0.316 | 0.116 | 0.695
19 | CRAT (UniProt P43155) | 0.0734 | 0.0164 | 0.114
20 | ADPRHL2 (UniProt Q9NX46) | -0.268 | 0.435 | -0.109
21 | LARP4B (UniProt Q92615) | -0.111 | 0.048 | 0.174
22 | UEVLD (UniProt Q8IX04) | 0.0354 | 0.183 | 0.107
23 | OTUD4 (UniProt Q01804) | 0.258 | 0.168 | 0.183
24 | ABCF2 (UniProt Q9UG63) | 1.72 | -0.652 | -0.279

Row | Target | thermal stability z-score (potassium arsenate) | thermal stability z-score (lipoamide; [1]) | thermal stability z-score (lipoamide; arsenate co-treatment: none)
25 | TXLNA (UniProt P40222) | 2.4 | 0.459 | 0.0728
26 | IFT122 (UniProt Q9HBG6) | 0.188 | 0.185 | 0.177
27 | MED6 (UniProt O75586) | 0.00858 | 0.171 | 0.0477
28 | DHRSX (UniProt Q8N5I4) | -0.643 | 0.396 | 0.418
29 | RBBP4 (UniProt Q09028) | -0.0159 | 0.868 | 0.934
30 | PCM1 (UniProt Q15154) | 0.131 | -0.0188 | -0.104
31 | PLAUR (UniProt Q03405) | -0.768 | -1.4 | -2.11
32 | IPO9 (UniProt Q96P70) | 0.165 | 0.178 | -0.179
33 | PSME2 (UniProt Q9UL46) | 0.951 | 0.493 | 0.0915
34 | MRPL55 (UniProt Q7Z7F7) | -0.38 | 0.0563 | 0.0521
35 | TRIM47 (UniProt Q96LD4) | 0.944 | -0.148 | -0.0936
36 | PRPF38A (UniProt Q8NAV1) | 0.503 | 0.22 | 0.213
37 | CYC1 (UniProt P08574) | -1.31 | 0.0943 | -0.0471
38 | CUL5 (UniProt Q93034) | 0.131 | 0.631 | 0.636
39 | PDIA5 (UniProt Q14554) | 0.611 | -3.58 | -2.41
40 | TMEM9B (UniProt Q9NQ34) | 0.838 | 0.157 | 0.52
41 | CEP170B (UniProt Q9Y4F5) | -0.201 | -0.0863 | -0.0862
42 | SLC9A3R2 (UniProt Q15599) | -0.923 | -0.0651 | 0.332
43 | NEMF (UniProt O60524) | 0.135 | -0.153 | -0.18
44 | TIPIN (UniProt Q9BVW5) | 0.349 | -0.58 | 0.146
45 | LAMB1 (UniProt P07942) | 0.724 | -3.22 | -2.66
46 | GLRX5 (UniProt Q86SX6) | -0.462 | 1.13 | -0.225
47 | DNAJC2 (UniProt Q99543) | 1.09 | -0.0501 | 0.0208
48 | SLC52A2 (UniProt Q9HAB3) | -0.17 | 0.194 | 0.164

Row | Target | thermal stability z-score (potassium arsenate) | thermal stability z-score (lipoamide; [1]) | thermal stability z-score (lipoamide; arsenate co-treatment: none)
49 | ABHD10 (UniProt Q9NUJ1) | -0.374 | 0.377 | -0.241
50 | HACL1 (UniProt Q9UJ83) | 0.107 | 0.259 | -0.331
51 | VIPAS39 (UniProt Q9H9C1) | 0.358 | -0.0571 | 0.338
52 | WDR47 (UniProt O94967) | -0.0616 | 0.51 | 0.317
53 | GINS4 (UniProt Q9BRT9) | -0.614 | 0.2 | -0.173
54 | ZFP91 (UniProt Q96JP5) | -0.352 | -0.301 | 0.00195
55 | PROSC (UniProt O94903) | -1.14 | -0.595 | 0.453
56 | KYNU (UniProt Q16719) | 0.0266 | 0.77 | 0.403
57 | PPIB (UniProt P23284) | 0.559 | -3.74 | -2.72
58 | TSG101 (UniProt Q99816) | -0.0661 | 0.29 | 0.0321
59 | GNAI2 (UniProt P04899) | -0.276 | 0.83 | 0.313
60 | RBM34 (UniProt P42696) | -0.201 | 0.0729 | -0.0422
61 | MLLT4 (UniProt P55196) | -0.113 | -0.572 | -0.126
62 | RFC5 (UniProt P40937) | 0.971 | -0.341 | -0.0735
63 | PAN3 (UniProt Q58A45) | -0.257 | -0.038 | 0.0344
64 | MYO9B (UniProt Q13459) | -0.364 | -0.266 | -0.1
65 | STXBP3 (UniProt O00186) | 0.223 | 0.948 | 0.942
66 | RAP2C (UniProt Q9Y3L5) | 0.21 | 1.35 | 0.676
67 | FTH1 (UniProt P02794) | -2.18 | 0.266 | 0.204
68 | PPAN (UniProt Q9NQ55) | -0.33 | 0.703 | -0.582
69 | PAK1IP1 (UniProt Q9NWT1) | -1.53 | 0.104 | -0.651
70 | PTBP2 (UniProt Q9UKA9) | -0.161 | -0.138 | -0.14
71 | FLII (UniProt Q13045) | 0.68 | -0.35 | 0.0176
